Test [1] concerns the target T1, GLUT5A396W (Homo sapiens, UniProt P22732, A396W).
T1 construct: Full length DNA was subcloned into pFastBac1 (Life Technologies) vector with a N-terminal hexahistidine tag; hexahistidine (thrombin-cleavable) (N, cleaved yes); made in house; host or cells: Sf21 insect cells (baculovirus, pFastBac1)
T1 sequence (P22732 1-501 A396W): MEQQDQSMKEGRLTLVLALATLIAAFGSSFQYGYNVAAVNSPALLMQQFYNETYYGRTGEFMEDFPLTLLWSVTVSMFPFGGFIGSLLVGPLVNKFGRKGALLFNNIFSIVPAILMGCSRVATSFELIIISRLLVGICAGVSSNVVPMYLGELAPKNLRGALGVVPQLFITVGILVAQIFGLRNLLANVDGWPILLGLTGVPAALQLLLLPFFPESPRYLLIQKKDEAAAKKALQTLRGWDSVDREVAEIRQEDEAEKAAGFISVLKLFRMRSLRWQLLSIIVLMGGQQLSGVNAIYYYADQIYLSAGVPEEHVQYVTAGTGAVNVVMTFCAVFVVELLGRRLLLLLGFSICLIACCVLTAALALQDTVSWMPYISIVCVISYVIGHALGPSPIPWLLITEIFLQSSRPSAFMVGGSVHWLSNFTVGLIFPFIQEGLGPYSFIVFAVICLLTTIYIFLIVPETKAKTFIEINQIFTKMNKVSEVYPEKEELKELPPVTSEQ
Put plainly: entrance counter-flow transport assay, fructose transport by GLUT5A396W proteoliposomes. The format is biochemical. The protocol:
We expressed and purified GLUT1W388A and GLUT5A396W. Purified mutant proteins were reconstituted into proteoliposomes and activity was determined by entrance counter-flow transport assay.
cDNAs of GLUT1 and GLUT5 were purchased from Open Biosystems (GE Healthcare). Full length DNA was subcloned into pFastBac1 (Life Technologies) vector with a N-terminal hexahistidine tag. Bacmids were generated in DH10Bac E. coli cells (Life Technologies). Baculoviruses were produced using Cellfectin II Reagent and amplified in Sf21 insect cells (Life Technologies). Cells were maintained at 26 °C, and P1 (10^6 pfu/mL) was collected from infected cells after 72 hours. Sf21 cells were propagated in HyClone SFX-Insect media (GE Healthcare), supplemented with 5% fetal bovine serum (Biowest), antibiotics (100 units/mL Penicillin G and 100 μg/mL streptomycin sulfate) and amphotericin B (2.5 μg/mL). For recombinant protein expression, Sf21 cells in suspension culture at 2 × 10^6 cells/ml were infected with P3 viral stock (10^8 pfu/mL), at an MOI of 1.0 pfu/cell. Four days after viral infection, cells from 2 L culture were collected by centrifugation at 2,000 × g and 25 °C. […]

In test [2] the target is T2, human GLUT1 (Homo sapiens, UniProt P11166).
T2 construct: Full length DNA was subcloned into pFastBac1 (Life Technologies) vector with a N-terminal hexahistidine tag; hexahistidine (thrombin-cleavable) (N, cleaved yes); made in house; host or cells: Sf21 insect cells (baculovirus, pFastBac1)
T2 sequence (P11166 1-492): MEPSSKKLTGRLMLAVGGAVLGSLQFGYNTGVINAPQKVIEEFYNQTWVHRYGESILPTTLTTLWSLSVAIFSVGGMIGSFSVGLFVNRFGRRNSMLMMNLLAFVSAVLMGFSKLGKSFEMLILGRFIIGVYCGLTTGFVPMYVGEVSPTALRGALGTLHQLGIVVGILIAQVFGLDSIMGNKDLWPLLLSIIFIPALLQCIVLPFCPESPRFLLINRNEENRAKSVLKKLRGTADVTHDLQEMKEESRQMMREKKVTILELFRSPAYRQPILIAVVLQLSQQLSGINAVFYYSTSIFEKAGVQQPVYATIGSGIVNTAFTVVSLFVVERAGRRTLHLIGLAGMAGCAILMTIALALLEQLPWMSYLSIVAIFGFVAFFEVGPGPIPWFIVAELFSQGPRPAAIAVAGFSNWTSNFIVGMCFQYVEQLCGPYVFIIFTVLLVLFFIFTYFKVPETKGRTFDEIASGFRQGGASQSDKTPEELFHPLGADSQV
Put plainly: entrance counter-flow transport assay, GLUT1-mediated glucose transport in proteoliposomes. The format is biochemical. The procedure:
Human GLUT1 and GLUT5 were expressed recombinantly in insect cell culture. The purified proteins were reconstituted into proteoliposomes. To measure the inhibition of GLUT1 or GLUT5 transport activity we used entrance counter-flow transport assay. In GLUT1 and GLUT5 proteoliposomes, substrate transport reached steady state after one minute incubation at room temperature.
Proteoliposomes were generated according to the protocol from[30] with minor modifications. Liposomes were produced from a 95/5% (w/w) mix of soy phosphatidylcholine and cholesterol (Avanti Polar Lipids). Briefly, hexane-washed and vacuum-dried lipids were resuspended to 20 mg/ml in 100 mM KPi (pH 7.5), and then subjected to 11 freeze-and-thaw cycles in liquid nitrogen and room temperature water. The lipid mixture was extruded through a 0.1 μm polycarbonate filter. Prepared liposomes were destabilized with 4 mM Triton X-100 and mixed with purified protein in a 100:1 (w/w) ratio in 100 mM KPi (pH 7.5) 20% (v/v) glycerol, 200 mM (glucose or fructose). Detergent was removed by several additions of SM2 BioBeads (BioRad) and incubated overnight at 4 °C. After filtering out the BioBeads, proteoliposomes were diluted with 100 mM KPi (pH 7.5) 200 mM (glucose or fructose), and then collected by ultracentrifugation, at 200,000 × g and 4 °C, for 1 hour. The proteoliposomes pellet was resuspended in the above buffer so that O.D.600nm was ~30.
To measure hexose transport, we utilized entrance counter-flow assay. Transport was performed in a volume of 100 μL of 100 mM KPi (pH 7.5) buffer containing radioactive ^14C-hexose (4 μM fructose or 5 μM glucose) with inhibitors added before initiation of transport. Radioactive substrate uptake in GLUT1 and GLUT5 (wild-type or mutant) proteoliposomes was constant between 1 and 2 mins. The reaction was started by the addition of 3 μL concentrated proteoliposomes to the above solution and incubated at room temperature; the transport was stopped after one minute by addition of ice-chilled quench buffer [100 mM KPi (pH 5.5) and 100 mM LiCl]. The solution was filtered through a 0.4 μm pore size cellulose nitrate membrane filter (Whatman), and the filter was washed three times with quench buffer. The membrane filter was placed into a vial filled with BioSafe II scintillation liquid (Research Products International Corp.), and radioactivity was quantified with LS 6500 scintillation counter (Beckman). […] The transport assays were unaffected by 5% DMSO. Data is presented as relative activity normalized to radioactivity of no inhibitor added as 100% and empty proteoliposomes as 0%. Kinetic parameters were fitted by nonlinear algorithm plots using Prism (GraphPad Software).

The source of these data is publication PMC4549712, “Inhibition of human GLUT1 and GLUT5 by plant carbohydrate products; insights into transport specificity” (Scientific Reports, 2015).

Several values for one entry are separate records, joined by “and”; a condition that tells them apart may be missing. Equal entries are not always repeated.

For the compound `C=C1C[C@@]23CC[C@H]4[C@@](C)(CCC[C@@]4(C)C(=O)O[C@@H]4O[C@H](CO)[C@@H](O)[C@H](O)[C@H]4O)[C@@H]2CC[C@]1(O[C@@H]1O[C@H](CO)[C@@H](O)[C@H](O)[C@H]1O)C3` [Rub, Rubusoside], the IC50 in test [1] is 10.3 mM and 10 mM; in test [2] (entrance counter-flow) it was 4.6 mM and ~5 mM. Moreover, the “inhibition of GLUT1 glucose transport activity” value in test [2] (20 mM) was “reducing activity to background levels”.
